Each structure is given as a SMILES string. “And” between values parts separate entries of the source, which are not always exact repeats. Equal entries are not always repeated.

This assay relates to THP-1 viability, CellTiter-Glo luminescence, 72 h. The assay can be described thus: human monocytic cell viability reduction – S. typhimurium screen hits, cytotoxicity control for Salmonella PhoP regulon inhibitors, dose response (AID 2253).
Regarding `O=C1/C(=C/c2ccccc2)NC(=S)N1C(c1ccccc1)c1ccccc1`, the EC50 (usually the midpoint of the concentration-response curve) was 4.48 µM.

Turning to `CCn1cc(C(=O)O)c(=O)c2cc(F)c(N3CCN(C(=S)NC(=O)c4c(OC)cccc4OC)CC3)cc21`, the EC50 is 43.5 µM.

`COc1ccc(NS(=O)(=O)c2cc(C)ccc2NC(=O)c2cc(C)oc2C)cc1`: the EC50 is 0.26 µM. In the case of `Oc1cccc(/C=N/Nc2ccc(Cl)nn2)c1O`, the concentration for a half-maximal effect (EC50) was 0.66 µM.

Consider `c1ccc2c(NC3=NCCS3)cccc2c1`, for which the EC50 was 31.8 µM.

Turning to `O=C(Cn1nc(CNc2ccc(Cl)cc2)[n+]2c1CCCCC2)c1ccc(Br)cc1`, the concentration for a half-maximal effect (EC50) is 11.6 µM. As for `O=C(N/N=C/c1cc(Cl)ccc1O)c1cccnc1`, the concentration for a half-maximal effect (EC50) was 2.08 µM.

In the case of `C#CCOCCOCCOCCNc1nc(N2CCN(C(=O)CCCCCCCCCCNC(=O)[C@H](CCCN=C(N)N)n3cc(C[C@@H](C)CC)nn3)CC2)nc(N2CCN(C(=O)CCCCCCCCCCNC(=O)[C@@H]([C@H](C)CC)n3cc(CCCCCN)nn3)CC2)n1`, the half-maximal effective concentration (EC50) is 5.33 µM. For `Cc1cc(C)c2ccc(N)nc2c1O`, the EC50 was 2.91 µM. For `Cc1cc(O)ccc1Nc1nc2ccccc2nc1Nc1ccc(O)cc1C`, the EC50 is 24.4 µM. In the case of `CNC[C@H](CC1CCCCC1)NC[C@H](Cc1ccccc1)NCCC12CC3CC(CC(C3)C1)C2`, the concentration giving a half-maximal response (EC50) is 3.28 µM. The result for `Cc1cc(C)c2nc(NNC(=O)c3ccc(S(=O)(=O)N4CCc5ccccc5C4)cc3)sc2c1` reads 1.69 µM; that for `COc1c(Cl)cnn(-c2ccc(C)cc2)c1=O`, 16.5 µM; that for `N=c1n(Cc2ccccc2)c2ccccc2n1CC(O)COc1ccc(Cl)cc1Cl` (configuration not stated), 2.91 µM. As to `CCCCCCCSc1cc(OC)c(CCN(C)C)cc1OC`, the EC50 was 14.1 µM. `Oc1c(C(Nc2cccc(C(F)(F)F)c2)c2cccnc2)ccc2cccnc12` (configuration not stated): the EC50 was 7.65 µM. As for `O=S(=O)(Nc1cc(Sc2ncn[nH]2)c(O)c2ccccc12)c1ccccc1`, the EC50 was 5.35 µM. As to `CC(C)C(=O)NC(c1cccc([N+](=O)[O-])c1)c1ccc2cccnc2c1O` (configuration not stated), the EC50 is 0.51 µM.

For the molecule `OCCNCc1c(OCc2ccc(Cl)cc2)ccc2ccccc12`, the EC50 is 7.52 µM.

For `O=C(OCC1O[C@@H](OC(=O)c2cc(O)c(O)c(O)c2)[C@@H](OC(=O)c2cc(O)c(O)c(O)c2)[C@@H](OC(=O)c2cc(O)c(O)c(O)c2)[C@@H]1OC(=O)c1cc(O)c(O)c(O)c1)c1cc(O)c(O)c(O)c1` (some centres not stated), the EC50 was 14 µM. Regarding `CCOC(=O)C(C)/C(C)=N/NC(=O)c1cc2ccccc2cc1O` (configuration not stated), the half-maximal effective concentration (EC50) is 6.99 µM. With `Cc1ccccc1OCCSCc1nc2ccccc2[nH]1`, the EC50 was 30.4 µM. On to `O=[N+]([O-])c1cc(O)c2ncccc2c1`, for which the EC50 was 6.48 µM. With `Cc1nc(N)nc(N)c1/C=C/C(C)(C)c1ccc(Cl)cc1`, the EC50 is < 0.1 µM.

Regarding `CCN1/C(=C/C=C/C=C/c2sc3ccccc3[n+]2CC)Sc2ccccc21`, the half-maximal effective concentration (EC50) is 4.62 µM. The result for `Cc1nc2c(=O)n(C)c(=O)nc-2n(C)n1` reads 1.22 µM; that for `CC(C)(C)c1nn(-c2ccccc2)c2[nH]c(=O)c(CNCc3ccco3)cc12`, 49.6 µM. Consider `NCCc1c(-c2ccccc2)n(-c2ccccc2)c2ccccc12`, for which the EC50 was 4.76 µM. Regarding `O=c1[nH]c(NNC(=S)NCc2ccccc2)nc2c1C1(CCCCC1)Cc1ccccc1-2`, the EC50 was 45.1 µM. For the molecule `COC(=O)c1cc(C)nc2c1C(=O)C(=O)C=C2N1CCOCC1`, the EC50 was 2.97 µM.

On to `NC(=NCCCCCCN=C(N)/N=C(\N)Nc1ccc(Cl)cc1)/N=C(\N)Nc1ccc(Cl)cc1`, for which the concentration for a half-maximal effect (EC50) was 3.09 µM and 3.04 µM and 2.9 µM.

Regarding `O=C(Cc1ccccc1)Nc1cccc(N2C(=O)C=CC2=O)c1`, the EC50 was 16.1 µM. As to `COc1ccc(C)cc1NC(=O)C(Sc1nnc(-c2ccncc2)n1-c1ccc(Cl)cc1)c1ccccc1` (configuration not stated), the EC50 is 22 µM. For `Clc1c(OCCCn2ccnc2)ccc2ccccc12`, the EC50 is 35.2 µM. Consider `Cc1ccc(-c2csc(N=C(N)N)n2)c(C)c1`, for which the EC50 is 23.5 µM. Next, `O=C(N/N=C/c1cc(Cl)ccc1O)c1ccncc1`: 5.12 µM; `C#CCOCCOCCOCCNc1nc(N2CCN(C(=O)CCCCCCCCCCNC(=O)[C@H]([C@@H](C)CC)n3cc(CCCCN=C(N)N)nn3)CC2)nc(N2CCN(C(=O)CCCCCCCCCCNC(=O)[C@H]([C@@H](C)CC)n3cc(CCCCN=C(N)N)nn3)CC2)n1`: 4.39 µM; `C#CCn1cc(/C=N/Nc2nc3ccccc3[nH]2)c2ccccc21`: 6.14 µM. The result for `O=C(NCc1ccco1)c1cccc(Nc2nc3ccc(Br)cc3[nH]2)c1` reads 44.6 µM. For `CCCc1cnc(NCCNCC(O)COc2ccc(Cl)c(Cl)c2)nc1` (configuration not stated), the EC50 is 11.8 µM. Take `Nc1ccc(N(c2ccccc2)c2ccc(N)cc2)cc1`: the EC50 is 4.85 µM. Regarding `COc1cccc(/C=N/n2c(C)nc3ccccc3c2=O)c1O`, the EC50 is 27.7 µM. With `Oc1c(Cl)cc(Cl)c(Cl)c1Cc1c(O)c(Cl)cc(Cl)c1Cl`, the EC50 is 14.7 µM. As for `CCCCCCCCCCCCCCCC[n+]1cccc(C(=O)N(CC)CC)c1`, the EC50 was 0.64 µM. Next, `C/C(=N\NC(=O)c1cc2ccccc2cc1O)c1ccccn1`: 0.76 µM; `CC(=O)Nc1cc(N=Cc2ccc(O)cc2O)c(Cl)cc1Cl`: 45.3 µM. Take `O=C(c1ccccc1)c1c2c(cc3sc4ccccc4[n+]13)-c1cccc3cccc-2c13`: the EC50 was 1.28 µM. The result for `Oc1c(Cl)cc(Cl)c2cccnc12` reads 12.8 µM; that for `Nc1c(C(=O)NCCc2ccc(Cl)cc2)sc2ccc(S(=O)(=O)N3CCCCC3)cc12`, 31.5 µM.

As to `CN1CCc2c(sc(NC(=O)c3ccc([N+](=O)[O-])o3)c2C(N)=O)C1`, the EC50 was 0.61 µM. Next, `O=S1(=O)Nc2c(ccc3cccnc23)-c2ccccc21`: 0.69 µM. Next, `O=C(Nc1cccc(N=Cc2cc(Br)cc(Br)c2O)c1)c1ccco1`: 38.5 µM; `CC[C@@H](C)[C@H](CNC)NC[C@@H](Cc1cccc2ccccc12)NCCc1cccc(C(F)(F)F)c1`: 7 µM. On to `CC(C)[C@@H]1CC[C@@H](C)C[C@H]1OC(=O)C[n+]1cc(-c2ccc(Cl)cc2)n2c1CCCCC2`, for which the EC50 is 2.3 µM. Next, `Cc1ccc(S(=O)(=O)/N=C2/C=C(Sc3ncn[nH]3)C(=O)c3ccccc32)cc1`: 2.13 µM. For `Cc1cc(C)n(-c2nc(NCCN(C)C)c3c4c(sc3n2)CCCC4)n1`, the EC50 was 4.63 µM. As for `CCc1ccc(CNc2ccc(O)cc2)cc1`, the EC50 is 17.1 µM.

Take `Oc1ccc(C=Nc2cccc3ncccc23)c(O)c1`: the EC50 was 43.3 µM. Next, `CCCCCCCCn1c2c(c(=N)c3ccccc31)CCC2`: 0.98 µM; `Oc1c(CN2CCc3ccccc3C2)cc(Cl)c2cccnc12`: 8.71 µM; `CCN1/C(=C/C(C)=C/c2sc3ccccc3[n+]2CC)Sc2ccccc21`: 13.6 µM. In the case of `Cc1cc(/C=N/NC(=O)c2cccc([N+](=O)[O-])c2)c(C)n1-c1ccc(Cl)cc1Cl`, the EC50 was 43.9 µM. In the case of `COc1ccc(C(C[N+](=O)[O-])n2nc(C)cc2C)cc1` (configuration not stated), the EC50 is 10.1 µM.

As for `Clc1ccc(-c2c[n+](Cc3ccc(Cl)cc3Cl)c3n2CCCCC3)cc1`, the EC50 is 3.61 µM. On to `CCN(CC)c1ccc(S(=O)(=O)Nc2cc(Cl)ccc2Cl)cc1NC(=S)NC(=O)C1CCCC1`, for which the EC50 is 40 µM.

For `O=[N+]([O-])/C=C/c1cc2ccccc2[nH]1`, the half-maximal effective concentration (EC50) is 31.6 µM.

As for `O=C(Nc1nc(-c2ccncc2)cs1)C1c2ccccc2Oc2ccccc21`, the EC50 was 16.9 µM. On to `O=C(N/N=C/c1c[nH]c2ccccc12)c1cc(-c2ccc3ccccc3c2)n[nH]1`, for which the EC50 is 3.02 µM. Take `Cc1nc2c(C(=O)NCCC(C)C)c[nH]n2c(=O)c1Cc1ccccc1F`: the EC50 is 30.7 µM. Next, `Brc1cccc(CNc2nc3ccccc3n2CCN2CCCCC2)c1`: 26.3 µM; `COc1ccc(-c2c/c(=N\c3nc(-c4ccccc4)c(C)s3)c3ccccc3o2)cc1O`: 2.36 µM.

On to `O=C1C(SCCO)=C(SCCO)C(=O)c2ccccc21`, for which the concentration for a half-maximal effect (EC50) was 8.13 µM. Next, `Cc1ccc2[nH]c3c(NCc4ccco4)ncnc3c2c1`: 34.7 µM; `CC(=O)NC(c1cccc([N+](=O)[O-])c1)c1ccc2cccnc2c1O` (configuration not stated): 0.49 µM. Consider `CC(C(=O)Nc1cc([N+](=O)[O-])ccc1Cl)N1CCN(c2ccccc2O)CC1` (configuration not stated), for which the EC50 was 25.6 µM. Next, `CCOC(=S)SCC(=O)Nc1nc(-c2ccccc2)cs1`: 4.91 µM. Take `Cc1ccc(C(C[N+](=O)[O-])c2c(-c3ccccc3O)[nH][nH]c2=O)cc1` (configuration not stated): the EC50 was 27.7 µM. Next, `COc1ccccc1-c1c(C#N)c(N)nc2c1CCc1ccccc1-2`: 13.2 µM. Turning to `S=C(NCc1ccncc1)Nc1ccc(Cl)c(Cl)c1`, the EC50 was 46.2 µM. For `COc1ccc(/C=C/c2nc3ccccc3n2Cc2ccccc2OC)cc1`, the EC50 was 13.2 µM. As for `CCOc1cccc(CNc2ccc(O)cc2)c1OCc1ccc(Cl)cc1Cl`, the EC50 was 26.9 µM. Consider `O=C(O)C1Nc2c(O)cccc2C2C=CCC12` (configuration not stated), for which the EC50 was 22.6 µM. Next, `CC(NCc1ccc(Cl)c(Cl)c1)C(O)c1ccccc1` (configuration not stated): 40 µM. Regarding `CC(C)CCNCC(O)CON=C1c2ccccc2-c2ccccc21` (configuration not stated), the EC50 is 10.2 µM.

For the molecule `CN1CCN(C(c2ccc(Br)cc2)c2cc(Cl)c3cccnc3c2O)CC1` (configuration not stated), the half-maximal effective concentration (EC50) was 3.87 µM. Next, `Oc1ccc(CN2CCc3ccccc3C2)c2cccnc12`: 3.39 µM; `Cc1cc(/C=N/n2cnnc2)c(C)n1-c1ccc(OCc2ccc(F)cc2)cc1`: 12.7 µM; `NC1=NC(=Nc2cccc(Cl)c2)c2ccccc21`: 32.4 µM. With `CCn1c(N)[n+](CC(=O)Nc2ccc(SC(F)F)cc2)c2ccccc21`, the concentration for a half-maximal effect (EC50) was 13.3 µM. Turning to `O=c1[nH][nH]c(-c2ccccc2O)c1C(C[N+](=O)[O-])c1ccc(Br)cc1` (configuration not stated), the EC50 was 16 µM. Turning to `O=c1[nH]cc(F)c(=O)[nH]1`, the EC50 is 4.25 µM.

Take `CCOC(=O)c1ccc(-c2ccc(C3Nc4ccccc4C(=O)N3O)o2)cc1` (configuration not stated): the EC50 was 9.38 µM.

As for `Cc1ccc(C(C[N+](=O)[O-])c2c(C)cc3ccccn23)cc1` (configuration not stated), the EC50 is 15.4 µM. As for `CC[n+]1c(/C=C/C=C/c2ccc(N(C)C)cc2)sc2ccccc21`, the EC50 was 1.5 µM. For `O=C(Nc1ccc(O)cc1)c1cc2n(n1)C(C(F)(F)F)CC(c1ccco1)N2` (configuration not stated), the EC50 was 11.9 µM. With `O=c1c(Cl)c(Cl)cnn1Cc1ccccc1Cl`, the EC50 is 2.95 µM. The result for `CC(C)NC1=C(Cl)C(=O)c2ccccc2C1=O` reads 18.9 µM.
